Data set [1] in a line: Cytotoxicity, PrestoBlue cell viability assay in BV-2 cells. The settings on record: mouse, BV-2 microglial cells; for viability at 24 h, 1 µM: 1 µM (log C -6); for viability at 24 h, 50 µM: 50 µM (log C -4.3); for viability at 24 h, 100 µM: 100 µM (log C -4); for IC50 at 24 h: PrestoBlue, mean ± SEM, read-out: Cytotoxicity in BV-2 Cells (IC50 x¯ ± SEM µM). Format: cell-based, mouse. Here is the method: (§1) We assessed their cytotoxic effects at five concentrations (0.1, 1, 10, 50, and 100 µM) in HT-22 (mouse hippocampal neuronal cells) and BV-2 (mouse microglial cells) cell lines using a fluorometric assay with PrestoBlue™ cell viability reagent (Table 4, Table S2 in the SI).
(§2) Mouse microglial cells (BV-2) were a generous gift from Professor Bozena Kaminska-Kaczmarek of the Laboratory of Molecular Neurobiology, Neurobiology Center, Nencki Institute of Experimental Biology, Polish Academy of Sciences, Warsaw, Poland. Cells were cultured in Dulbecco’s modified Eagle’s Medium-high glucose (DMEM, Glutamx Thermo Fisher, Waltham, MA, USA) supplemented with 10% inactivated fetal bovine serum (Thermo Fisher), 100 IU/mL penicillin (Merck), and 100 µg/mL streptomycin (Merck). Cells were cultured in flasks (area 175 cm^2, Nunc) and incubated at 37 °C, 5% CO2. To evaluate the level of NO, IL-6, and TNF-α and the effectiveness of the compounds tested, BV-2 microglia cells were cultured in 96-well culture plates (5 × 10^4 cells per well, Falcon). For the measurement of cell viability and cell membrane damage, cells were placed in 96-well culture plates (2 × 10^4 cells per well, Falcon). Before the tests, cells were grown for 24 h in the incubator (37 °C, 5% CO2). Mouse Hippocampal Neuronal Cell Line (HT-22) was a generous gift from Dr Bartosz Pomierny of the Department of Biochemical Toxicology, Jagiellonian University Medical College, Krakow, Poland. Cells were cultured in Dulbecco’s modified Eagle’s Medium-high glucose (DMEM, Glutamx Thermo Fisher) supplemented with 10% inactivated fetal bovine serum (Thermo Fisher), 100 IU/mL penicillin (Merck), and 100 µg/mL streptomycin (Merck). Cells were cultured in flasks (area 175 cm^2, Nunc) and incubated at 37 °C, 5% CO2. For the measurement of cell viability and neuroprotective effects against okadaic acid, cells were placed in 96-well culture plates (2 × 10^4 cells per well, Falcon). Before the tests, cells were grown for 24 h in the incubator (37 °C, 5% CO2).
(§3) Cell viability was evaluated using the PrestoBlue reagent (Thermo Fisher), according to the manufacturer’s procedures. Following 24 h of incubation with the tested molecule, PrestoBlue reagent was added to a microplate well in an amount equal to one-tenth of the remaining medium volume. The resulting mixture was incubated for 15 min at 37 °C, and the fluorescence intensity (EX 530; EM 580 nm) was measured using the plate reader POLARstar Omega, (BMG Labtech, Ortenberg, Germany). The results (viability values) are provided as a percentage of live cells with respect to DMSO (control sample).
(§4) Cytotoxic effects of selected inhibitors in HT-22 mouse hippocampal neuronal cells and BV-2 mouse microglial cells
(§5) Table S2. Cytotoxic effects of selected inhibitors in HT-22 mouse hippocampal neuronal cells and BV-2 mouse microglial cells. neurotoxicity in HT-22 cellsa immunotoxicity in BV-2 cellsa […]
(§6) a % of cell viability at the given concentration of tested compound; mean value ± standard deviation (SD) of triplicates; b half maximal inhibitory concentration of the tested compound; mean value ± standard error of the mean (SEM) of triplicates; c data obtained in log C of 39 of -8.5; -7.5; -6.5; -5.5; -5, respectively; d data obtained in log C of 49 of -7.5; -6.5; -5.5; -4.5; -4. respectively; nt, not tested.

Data set [2] has as its system BV-2 (mouse microglial cells). The description is as above. Format: cell-based. The following applies: for effect on cell viability in BV-2 cells (in words): 0.1, 1, 10, 50, and 100 µM. Here is the method:
as §1, §2, §3, §4, §5, §6

Another data set addresses GSK-3β (Homo sapiens, UniProt P49841). Kind of data set: ADP-Glo kinase assay, GSK-3β inhibition. Format: biochemical. On the set-up: purchased Promega. The settings on record: for IC50: mean ± SEM, ATP 25 µM. The text has this: We evaluated the inhibitory activity of the final compounds against GSK-3β, IKK-β, and ROCK-1 kinases using the commercially available ADP-Glo™ kinase assay. The method was based on the measurement of luminescence that correlates with kinase activity. […] The latter are inhibitors of the kinases of interest and were integral to the design of our studies.
Promega’s Kinase Enzyme Systems (Promega; Madison, WI, USA) were used to determine the activities of the tested compounds against the human recombinant kinases GSK-3β, IKK- β, and ROCK-1. The assays were performed according to the provided manufacturer’s instruction, based on the optimized conditions of the enzymatic reactions, using the low-volume, white polystyrene, 384-well plates. The ADP-Glo™ Assay (Promega; Madison, WI, USA) was used for bioluminescent detection of the kinase activity. Stock solutions of the tested compounds in DMSO (1mM) were diluted with the Kinase Assay Buffer before use (40 mM Tris, pH 7.5, enriched with 50 µM dithiothreitol; DTT), giving the final desired concentrations. The kinase enzymes, substrates, and ATP solutions were also diluted with the assay buffer prior to use. The GSK-3β, IKK-β, and ROCK-1 substrates were derived from human muscle glycogen synthase 1, human IkBA, and human 40S ribosomal protein S6, respectively. The assay procedure was as follows: At first, the appropriate kinase enzyme (GSK-3β: 10 ng per well; IKK-β: 45 ng per well; ROCK-1: 24 ng per well) was incubated with the tested sample (10 µM in well) for 5 min. The DMSO solution (1% in well) was used in the blank samples instead of the tested inhibitors. After the incubation period, ATP (25 µM per well in the case of GSK-3β and IKK-β kinases; 5 µM per well in the case of ROCK-1 kinase) and an appropriate enzyme substrate (0.2 µg/µL in well) were added to start the enzymatic reaction. The reaction mixture was kept at room temperature for 1 h; then, the ADP-Glo™ reagent was added, to terminate the kinase reaction and deplete any remaining ATP. After 40 min, a second reagent (Kinase Detection Reagent) was applied to convert the obtained ADP to ATP and to generate light from the newly synthesized ATP using a luciferase/luciferin reaction. The mixture was incubated for another 30 min at room temperature before the luminescence was measured. The calculations of the percent of kinases’ inhibition by tested compounds were based on the equation 100 − (S/B) × 100; S and B are the enzyme activities with and without the tested sample, respectively. […] Each compound was evaluated in two independent experiments, with every data point collected in duplicate.
(In general: ADP-Glo first removes unused ATP, then detects ADP through luciferase.)

Where [3] appears, read: 24 h, read-out: immunotoxicity in BV-2 cells, % of cell viability.
Setting [4] is: 10 µM (log C -5), 24 h, read-out: immunotoxicity in BV-2 cells, % of cell viability.

Each structure is given as a SMILES string. Read-outs that look alike come from different tables or passages of the source. Bounds are passed on as bounds.

One may read the viability as a read-out of living cells in per cent, often relative to untreated cells. As usually defined, the IC50 is the concentration that gives 50% inhibition.

GSK-3β, sequence (P49841 whole entry): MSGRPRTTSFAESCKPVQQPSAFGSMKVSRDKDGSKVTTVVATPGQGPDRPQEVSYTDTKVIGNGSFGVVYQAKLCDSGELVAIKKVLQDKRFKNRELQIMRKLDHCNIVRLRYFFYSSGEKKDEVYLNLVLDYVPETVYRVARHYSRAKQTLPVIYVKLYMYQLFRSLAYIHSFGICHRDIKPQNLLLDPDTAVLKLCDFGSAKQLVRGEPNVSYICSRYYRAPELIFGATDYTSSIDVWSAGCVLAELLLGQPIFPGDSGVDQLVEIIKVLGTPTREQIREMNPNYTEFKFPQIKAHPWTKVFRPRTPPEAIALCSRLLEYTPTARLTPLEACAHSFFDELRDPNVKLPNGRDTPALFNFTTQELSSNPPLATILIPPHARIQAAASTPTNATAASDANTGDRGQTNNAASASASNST

With `NC(=O)Nc1cc(-c2ccnc(NC(=O)C3CCC3)c2)sc1C(N)=O` [Compound 50, 5-(2-(Cyclobutanecarboxamido)pyridin-4-yl)-3-ureidothiophene-2-carboxamide], in data set [1] (setting [3]), the viability at 24 h, 1 µM amounted to 107%; the viability at 24 h, 50 µM is 96%; the viability at 24 h, 100 µM was determined as 50%; the viability at 24 h, 0.1 µM is 101%. In data set [1] (setting [4]), the viability at 24 h, 10 µM amounted to 114%. Also, in data set [1] (24 h), the 50% inhibitory concentration (IC50) at 24 h is over 100 µM. The “effect on cell viability in BV-2 cells (in words)” value (“effect on cell viability” below) in data set [2] is listed as “no significant decrease in cell viability”. Further, half-maximal inhibition against GSK-3β (IC50) was put at 34 nM.

As for `CC(C)C(=O)Nc1cc(-c2cc3c(s2)C(=O)NC(C)(C)N3)ccn1` [Compound 39, N-(4-(2,2-Dimethyl-4-oxo-1,2,3,4-tetrahydrothieno [3,2-d]pyrimidin-6-yl)pyridin-2-yl)isobutyramide], the viability at 24 h, 10 µM in data set [1] (log C -5 (footnote c; printed in column 100 µM), read-out: immunotoxicity in BV-2 cells, % of cell viability) came to 14%. Further, the viability at 24 h, 3.16 µM in data set [1] (log C -5.5 (footnote c; printed in column 50 µM), read-out: immunotoxicity in BV-2 cells, % of cell viability) came out at 73%. For the same compound, the viability at 24 h, 0.316 µM in data set [1] (log C -6.5 (footnote c; printed in column 10 µM), read-out: immunotoxicity in BV-2 cells, % of cell viability) was 105%. For the same compound, in data set [1] (24 h), the IC50 at 24 h worked out at 4.5 ± 1.9 µM. Moreover, the “effect on cell viability” value in data set [2] was “decreased cells’ viability”. The compound also yielded an IC50 against GSK-3β of 12 nM.

For the compound `CC(C)C(=O)Nc1cc(-c2cc(NC(N)=O)c(C(N)=O)s2)ccn1` [Compound 48, 5-(2-Isobutyramidopyridin-4-yl)-3-ureidothiophene-2-carboxamide], in data set [1] (setting [3]), the viability at 24 h, 1 µM is 97%; the viability at 24 h, 50 µM is 20%; the viability at 24 h, 0.1 µM is 103%. Besides, the viability at 24 h, 10 µM in data set [1] (setting [4]) was 66%. Besides, the 50% inhibitory concentration (IC50) at 24 h in data set [1] (24 h) was 21.8 ± 3.8 µM. Further, the “effect on cell viability” value in data set [2] is on record as “decreased cells’ viability”. Moreover, the midpoint of inhibition against GSK-3β, the IC50, lay at 22 nM.

As for `NC(=O)Nc1cc(-c2ccnc(NC(=O)C3CC3)c2)sc1C(N)=O` [Compound 49, 5-(2-(Cyclopropanecarboxamido)pyridin-4-yl)-3-ureidothiophene-2-carboxamide], in data set [1] (setting [3]), the viability at 24 h, 100 µM worked out at 74%. Besides, in data set [1] (24 h), the concentration for half-maximal inhibition (IC50) at 24 h was over 100 µM. Moreover, in data set [2], the “effect on cell viability” value is on record as “no significant decrease in cell viability” and the “effect on viability of BV-2 cells at concentrations up to 10 µM (in words)” value is listed as “did not decrease the viability of the cells”. This compound displayed an IC50 at GSK-3β of 20 nM.

For the compound `O=C1NC2(CCCC2)Nc2cc(-c3ccnc(NC(=O)C4CC4)c3)sc21` [Compound 60, N-(4-(4’-Oxo-3’,4’-dihydro-1’H-spiro[cyclopentane-1,2’-thieno [3,2-d]pyrimidin]-6’-yl)pyridin-2-yl)cyclopropanecarboxamide], in data set [1] (setting [3]), the viability at 24 h, 1 µM was determined as 101%; the viability at 24 h, 50 µM was determined as 3%; the viability at 24 h, 100 µM came out at 3%; the viability at 24 h, 0.1 µM came to 108%. Also, in data set [1] (setting [4]), the viability at 24 h, 10 µM was determined as 9%. Moreover, the IC50 at 24 h in data set [1] (24 h) stood at 3 µM. Moreover, the “effect on cell viability” value in data set [2] was “decreased cells’ viability”. The IC50 at GSK-3β was found to be 10 nM.

For `NC(=O)Nc1cc(-c2cccc(NC(=O)C3CC3)c2)sc1C(N)=O` [Compound 58, 5-(3-(Cyclopropanecarboxamido)phenyl)-3-ureidothiophene-2-carboxamide], in data set [1] (setting [3]), the viability at 24 h, 1 µM was determined as 107%; the viability at 24 h, 50 µM turned out to be 52%; the viability at 24 h, 100 µM worked out at 13%; the viability at 24 h, 0.1 µM is 106%. The viability at 24 h, 10 µM in data set [1] (setting [4]) is 97%. Further, in data set [1] (24 h), the IC50 at 24 h was found to be 51.4 ± 0.8 µM. Further, in data set [2], the “effect on cell viability” value was “decreased cells’ viability” and the “effect on viability of BV-2 cells at concentrations up to 10 µM (in words)” value was “did not decrease the viability of the cells”. Also, at GSK-3β (10 µM, mean ± SD, read-out: % inh. at 10 µM GSK-3β), the inhibition at 10 µM stood at 36%.

Regarding `CC1(C)NC(=O)c2sc(-c3ccnc(NC(=O)C4CC4)c3)cc2N1` [Compound 40, N-(4-(2,2-Dimethyl-4-oxo-1,2,3,4-tetrahydrothieno [3,2-d]pyrimidin-6-yl)pyridin-2-yl)-cyclopropanecarboxamide], in data set [1] (setting [3]), the viability at 24 h, 1 µM turned out to be 109%; the viability at 24 h, 50 µM amounted to 2%; the viability at 24 h, 100 µM was found to be 2%; the viability at 24 h, 0.1 µM turned out to be 106%. Also, the viability at 24 h, 10 µM in data set [1] (setting [4]) amounted to 9%. The IC50 at 24 h in data set [1] (24 h) was found to be 3.6 ± 0.7 µM. Further, the “effect on cell viability” value in data set [2] is reported as “decreased cells’ viability”. On GSK-3β, this compound registered an IC50 of 10 nM.

`COc1nc(-c2ccnc(NC(=O)C3CC3)c2)sc1C(N)=O` [II, reference compound]: in data set [1] (setting [3]), the viability at 24 h, 1 µM was 102%; the viability at 24 h, 50 µM was 27%; the viability at 24 h, 100 µM amounted to 4%; the viability at 24 h, 0.1 µM came out at 97%. For the same compound, the viability at 24 h, 10 µM in data set [1] (setting [4]) was 60%. Moreover, the IC50 at 24 h in data set [1] (24 h) amounted to 15.4 ± 0.6 µM. Moreover, the “effect on cell viability” value in data set [2] is listed as “decreased cells’ viability”. Moreover, inhibition against GSK-3β was half-maximal at 5 nM (IC50).

As for `CC1(C)NC(=O)c2sc(-c3ccnc(NC(=O)C4CCC4)c3)cc2N1` [Compound 41, N-(4-(2,2-Dimethyl-4-oxo-1,2,3,4-tetrahydrothieno [3,2-d]pyrimidin-6-yl)pyridin-2-yl)-cyclobutanecarboxamide], in data set [2], the “effect on cell viability” value is “decreased cells’ viability”. This compound also gave an IC50 against GSK-3β of 32 ± 1 nM.

(Values after publication PMC11173485, “Connecting GSK-3β Inhibitory Activity with IKK-β or ROCK-1 Inhibition to Target Tau Aggregation and Neuroinflammation in Alzheimer’s Disease—Discovery, In Vitro and In Cellulo Activity of Thiazole-Based Inhibitors” (Molecules, 2024).)
